Calls of active or inactive are those of the source. The rule behind the calls is not given here.

This note sets out measurements from ChEMBL document CHEMBL5543153, “Discovery of a Potent Dual Son of Sevenless 1 (SOS1) and Epidermal Growth Factor Receptor (EGFR) Inhibitor for the Treatment of Prostate Cancer” (J Med Chem, 2024).

Data set [1] deals with T1, Epidermal growth factor receptor (Homo sapiens, UniProt P00533). Briefly: Inhibition of EGFR (unknown origin) using ultra ULight GT peptide as substrate incubated for 2 hrs.
T1 sequence (P00533 whole entry): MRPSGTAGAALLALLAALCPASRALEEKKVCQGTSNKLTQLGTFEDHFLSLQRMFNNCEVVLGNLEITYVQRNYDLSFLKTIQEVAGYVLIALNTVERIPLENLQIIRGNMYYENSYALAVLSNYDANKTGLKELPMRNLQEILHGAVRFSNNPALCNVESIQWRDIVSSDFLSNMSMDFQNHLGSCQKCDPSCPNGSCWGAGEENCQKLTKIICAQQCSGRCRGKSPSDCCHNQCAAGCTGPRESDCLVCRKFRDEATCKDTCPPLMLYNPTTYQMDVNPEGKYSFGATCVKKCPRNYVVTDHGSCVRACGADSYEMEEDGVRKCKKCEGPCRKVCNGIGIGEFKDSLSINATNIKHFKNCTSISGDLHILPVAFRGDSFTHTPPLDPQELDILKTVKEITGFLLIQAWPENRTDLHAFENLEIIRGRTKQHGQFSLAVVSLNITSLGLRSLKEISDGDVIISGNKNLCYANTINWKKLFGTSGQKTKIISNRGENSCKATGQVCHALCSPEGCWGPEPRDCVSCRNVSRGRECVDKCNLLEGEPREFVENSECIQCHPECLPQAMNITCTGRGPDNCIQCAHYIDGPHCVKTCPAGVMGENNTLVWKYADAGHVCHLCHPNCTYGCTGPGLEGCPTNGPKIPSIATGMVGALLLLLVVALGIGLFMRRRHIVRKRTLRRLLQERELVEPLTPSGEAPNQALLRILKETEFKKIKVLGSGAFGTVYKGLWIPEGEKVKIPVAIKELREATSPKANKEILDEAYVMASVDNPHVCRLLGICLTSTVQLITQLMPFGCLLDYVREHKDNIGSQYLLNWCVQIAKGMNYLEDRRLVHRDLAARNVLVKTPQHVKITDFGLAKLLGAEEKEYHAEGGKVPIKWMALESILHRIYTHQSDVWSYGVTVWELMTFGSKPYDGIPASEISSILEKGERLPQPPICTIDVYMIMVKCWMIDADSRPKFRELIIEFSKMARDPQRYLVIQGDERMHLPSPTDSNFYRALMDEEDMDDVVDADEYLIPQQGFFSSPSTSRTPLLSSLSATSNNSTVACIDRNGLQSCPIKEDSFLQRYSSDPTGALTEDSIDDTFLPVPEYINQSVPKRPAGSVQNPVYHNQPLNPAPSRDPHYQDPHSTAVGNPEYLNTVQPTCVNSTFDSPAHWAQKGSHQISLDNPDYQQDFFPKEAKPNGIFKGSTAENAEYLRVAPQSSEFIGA
Another data set concerns K562. The experiment in a line: Antiproliferative activity against human K562 cells assessed as inhibition of cell growth incubated for 72 hrs by MTT assay. The data set is classed as functional, cell-based. On the technique in general: Tetrazolium assays rely on reduction of a dye to a coloured formazan, in cell work by metabolically active cells.
Another data set concerns HepG2. The experiment in a line: Antiproliferative activity against human HepG2 cells assessed as inhibition of cell growth incubated for 72 hrs by MTT assay. The data set is classed as functional, cell-based.
A further data set has as its system A549. The experiment in a line: Antiproliferative activity against human A549 cells assessed as inhibition of cell growth incubated for 72 hrs by MTT assay. The data set is classed as functional, cell-based.
The test system of a further data set is Calu-1. The experiment in a line: Antiproliferative activity against human Calu-1 cells harboring KRAS G12C mutant assessed as inhibition of cell growth incubated for 72 hrs by MTT assay. The settings on record: Calu-1, 72 h. The data set is classed as functional, cell-based.
In the next data set the test system is A-427. The experiment in a line: Antiproliferative activity against human A-427 cells harboring KRAS G12D mutant assessed as inhibition of cell growth incubated for 72 hrs by MTT assay. Particulars: A-427, 72 h. The data set is classed as functional, cell-based.
The subject of the next data set is SK-LU-1. Briefly: Antiproliferative activity against human SK-LU-1 cells harboring KRAS G12D mutant assessed as inhibition of cell growth incubated for 72 hrs by MTT assay. The data set is classed as functional, cell-based. The settings on record: SK-LU-1, 72 h.
Data set [2] addresses T2, Son of sevenless homolog 1 (Homo sapiens) (UniProt Q07889).
T2 sequence (whole entry): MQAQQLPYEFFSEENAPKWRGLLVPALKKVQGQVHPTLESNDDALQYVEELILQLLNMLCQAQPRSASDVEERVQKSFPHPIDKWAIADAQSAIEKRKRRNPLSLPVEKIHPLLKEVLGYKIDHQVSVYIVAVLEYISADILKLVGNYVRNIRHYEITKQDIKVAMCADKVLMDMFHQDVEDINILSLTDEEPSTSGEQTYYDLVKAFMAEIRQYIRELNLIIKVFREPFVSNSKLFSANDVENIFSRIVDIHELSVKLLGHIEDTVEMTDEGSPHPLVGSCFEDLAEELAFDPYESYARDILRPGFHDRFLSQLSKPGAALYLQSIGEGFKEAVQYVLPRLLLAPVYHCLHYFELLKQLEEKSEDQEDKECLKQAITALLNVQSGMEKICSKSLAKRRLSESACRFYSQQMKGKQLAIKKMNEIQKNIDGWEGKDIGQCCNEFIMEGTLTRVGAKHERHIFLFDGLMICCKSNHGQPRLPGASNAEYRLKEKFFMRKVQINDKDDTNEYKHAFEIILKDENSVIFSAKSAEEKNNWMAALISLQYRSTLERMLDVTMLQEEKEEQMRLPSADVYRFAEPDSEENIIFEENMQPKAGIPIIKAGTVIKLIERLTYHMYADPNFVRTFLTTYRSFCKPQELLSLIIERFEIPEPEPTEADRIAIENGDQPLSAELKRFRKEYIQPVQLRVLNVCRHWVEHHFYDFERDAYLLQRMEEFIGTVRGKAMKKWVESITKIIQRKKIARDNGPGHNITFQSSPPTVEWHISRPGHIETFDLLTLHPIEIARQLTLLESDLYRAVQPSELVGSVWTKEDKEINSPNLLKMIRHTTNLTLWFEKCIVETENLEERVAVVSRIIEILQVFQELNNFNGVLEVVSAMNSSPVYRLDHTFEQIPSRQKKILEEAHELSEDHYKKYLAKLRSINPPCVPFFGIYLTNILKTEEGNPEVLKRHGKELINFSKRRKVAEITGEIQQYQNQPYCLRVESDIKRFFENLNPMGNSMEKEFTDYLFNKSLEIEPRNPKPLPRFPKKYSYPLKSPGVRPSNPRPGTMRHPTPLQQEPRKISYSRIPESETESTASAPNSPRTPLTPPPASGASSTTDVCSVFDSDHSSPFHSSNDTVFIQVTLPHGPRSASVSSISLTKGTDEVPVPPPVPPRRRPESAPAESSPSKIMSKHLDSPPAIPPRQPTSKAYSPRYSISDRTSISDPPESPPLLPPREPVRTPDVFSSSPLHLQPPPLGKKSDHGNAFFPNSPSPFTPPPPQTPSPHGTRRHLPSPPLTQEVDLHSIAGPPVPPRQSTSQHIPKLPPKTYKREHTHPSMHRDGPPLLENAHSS
Briefly: Inhibition of SOS1 in human PC-3 cells assessed as downregulation of RAS-GTP expression at 0.5 uM incubated for 15 mins by Western blotting analysis. The data set is classed as cell-based. On the technique in general: Immunoblotting shows a protein as a band on a membrane.

Data set [3] concerns the target T2, Son of sevenless homolog 1 (Homo sapiens). Briefly: Inhibition of SOS1 in human PC-3 cells assessed as downregulation of RAS-GTP expression at 12.5 uM incubated for 15 mins by Western blotting analysis. The data set is classed as cell-based.
Data set [4] addresses T1, Epidermal growth factor receptor. Briefly: Inhibition of EGFR in human PC-3 cells assessed as downregulation of EGF-mediated AKT phosphorylation at 12.5 uM incubated for 15 mins in presence of EGF by Western blotting analysis. The data set is classed as cell-based.
Data set [5] has as its system PC-3. The experiment in a line: Induction of apoptosis in human PC-3 cells assessed as viable cells at 0.5 uM by Annexin V-FITC staining based flow cytometry (reference value: 94.9%). The data set is classed as functional. Particulars: read-out: Activity.
Data set [6] concerns PC-3. The experiment in a line: Induction of apoptosis in human PC-3 cells assessed as viable cells at 12.5 uM by Annexin V-FITC staining based flow cytometry (reference value: 94.9%). The data set is classed as functional. The settings on record: read-out: Activity.
Data set [7] deals with PC-3. Briefly: Induction of apoptosis in human PC-3 cells assessed as early apoptotic cells at 12.5 uM by Annexin V-FITC staining based flow cytometry (reference value: 2.64%). The data set is classed as functional. In general terms: Flow cytometry measures light scatter and fluorescence of single cells or particles in a stream.
Data set [8] has as its system PC-3. Briefly: Induction of apoptosis in human PC-3 cells assessed as late apoptotic cells at 12.5 uM by Annexin V-FITC staining based flow cytometry (reference value: 1.93%). The data set is classed as functional.
Data set [9] relates to PC-3. Briefly: Induction of apoptosis in human PC-3 cells assessed as necrotic cells at 0.5 uM by Annexin V-FITC staining based flow cytometry (reference value: 0.48%). The data set is classed as functional.
Data set [10] relates to PC-3. The experiment in a line: Inhibition of colony formation in human PC-3 cells incubated for 15 days by crystal violet staining based microscopic analysis. The data set is classed as functional, cell-based. Particulars: time 15.0 day.
Data set [11] has as its system PC-3. The experiment in a line: Antiproliferative activity against human PC-3 cells assessed as reduction in EdU-positive cells at 0.5 to 12.5 uM incubated for 48 hrs by EdU incorporation assay. The settings on record: dose 0.5-12.5 µM. The data set is classed as functional, cell-based.
The subject of data set [12] is PC-3. The experiment in a line: Induction of cell cycle arrest in human PC-3 cells assessed as accumulation of cells at S phase at 12.5 uM by PI staining based flow cytometry (reference value: 16.58%). The data set is classed as functional.
Data set [13] concerns PC-3. Briefly: Antitumor activity against human PC-3 cells xenografted in BALB/c mouse assessed as reduction in tumor weight at 5 mg/kg,ip administrated once every 4 days for 24 days. The data set is classed as functional, organism-based. The settings on record: time 24.0 day.
A short description of data set [14]: Toxicity in BALB/c mouse xenografted with human PC-3 cells assessed as heart pathological change at 20 mg/kg,ip administrated once every 4 days for 24 days by hematoxylin and eosin staining based analysis. The settings on record: in vivo, 576 h, time 24 day. The data set is classed as organism-based.
The nature of data set [15]: Toxicity in BALB/c mouse xenografted with human PC-3 cells assessed as change in ALT level at 20 mg/kg,ip administrated once every 4 days for 24 days by automatic biochemical analyzer. The data set is classed as organism-based. Particulars: in vivo, 576 h, time 24 day.
The nature of data set [16]: Toxicity in BALB/c mouse xenografted with human PC-3 cells assessed as change in blood urea nitrogen level at 20 mg/kg,ip administrated once every 4 days for 24 days by automatic biochemical analyzer. The settings on record: in vivo, 576 h, time 24 day. The data set is classed as organism-based.

A word on the IC50: it is the concentration at which inhibition is half-maximal. `COc1cc2ncnc(N[C@H](C)c3cccc(F)c3)c2cc1OC1CCOCC1`: the 50% inhibitory concentration (IC50) was found to be 1.01 nM in [1], 550 nM with Calu-1, 550 nM with A-427 and 550 nM in the data set on SK-LU-1. The outcome in the data set on K562, with HepG2, in the data set on A549, in the data set with PC-3 [11] and in the data set on PC-3 [13] was Active. For the same compound, the inhibition entry in [2], in data set [3] and in data set [4] was “Active” in each case. Also, the viability at 0.5 µM in the data set with PC-3 [5] came to 84.9%. Moreover, the viability at 12.5 µM in the data set on PC-3 [6] turned out to be 74.3%. The Activity with PC-3 [7] is 21.5%; in the data set with PC-3 [8], 4.07%; in the data set with PC-3 [9], 0.6%; with PC-3 [12] it was 6.67%; in data set [14], “Toxic”; in data set [15], “Non-Toxic”. Also, in data set [16], the Activity result was “Non-Toxic”. Moreover, in the data set on PC-3 [10], the inhibition entry is “Dose-Dependent Effect”.
